In PubChem BioAssay AID720589 (Broad Institute, 2013):

Tested on: HepG2 viability, ATP luminescence (CellTiter-Glo), 72 h
Assay: HepG2 hepatoma cell cytotoxicity, dose response, cytotoxicity control, CellTiter-Glo luminescence, cherry-pick, set 3 (AID 720589)

| Compound | AC35 [µM] |
| --- | --- |
| CC(C)=CCC/C(C)=C/CN1C(=O)N(c2ccc(F)cc2)[C@H]2C[C@@H](c3ccccc3)[C@@H](C)[C@@H](C(=O)N3CCOCC3)C[C@H]21 | 3.74 |
| Nc1ccc(-c2cc3ccccc3oc2=O)cc1 | 2.42 |
| O=C1NC(=O)N(Cc2ccccc2)C(=O)/C1=C\C=C\c1ccco1 | 5.18 |
| c1ccc(Nc2nnc(-c3ccc4c(c3)OCO4)o2)cc1 | 14.3 |
| CCOc1cc2[nH]c(=S)n(Cc3ccc(C(=O)NCCN(CC)CC)cc3)c(=O)c2cc1OCC | 15.8 |
| O=C(C1CC1)N1C[C@@H]2N[C@H](C1)C2c1ccc(/C=C/c2ccccc2)cc1 (stereo partly specified) | 10.7 |
| C[C@@H]1CN([C@@H](C)CO)C(=O)c2cccc(N(C)C)c2O[C@@H]1CN(C)Cc1ccc(C(=O)Nc2ccccc2N)cc1 | 4.26 |
| C[C@@H]1O[C@@H](O[C@@H]2C=C3CC[C@@H]4C(CC[C@]5(C)[C@@H](c6ccc(=O)oc6)CC[C@]45O)[C@@]3(C)CC2)[C@H](O)[C@H](O)[C@H]1O (stereo partly specified) | 0.0735 |
| C[C@H](CO)N1C[C@H](C)[C@H](CN(C)CC2CCCCC2)Oc2ccc(NC(=O)CCCCCC(=O)Nc3ccccc3N)cc2CC1=O | 0.219 |
| C(=Cc1nc2ccccc2o1)c1ccc2c(c1)OCO2 | 19.5 |
| COc1cc2c(cc1OC)C(C)N(C(=O)c1cc(Cl)nc(Cl)c1)CC2 (stereo unspecified) | 12.3 |
| O=C(c1nnsc1S(=O)c1ccc(Cl)cc1)N1CCOCC1 (stereo unspecified) | 7.87 |
| COC(=O)C1=C(C)N(Cc2ccccc2C(F)(F)F)C(=NCc2ccc(OC)cc2)NC1c1ccc(C(F)(F)F)cc1 (stereo unspecified) | 11.1 |
| C[C@@H]1O[C@@H](O[C@H]2C[C@@H](O)[C@]3(CO)[C@H]4[C@H](O)C[C@]5(C)[C@@H](C6COC(=O)C6)CC[C@]5(O)[C@@H]4CC[C@]3(O)C2)[C@H](O)[C@H](O)[C@H]1O (stereo partly specified) | 2.62 |
| Oc1[nH]c2ccc(Br)cc2c1N=NC(=S)N1CCOCC1 | 2.9 |
| COc1ccccc1-c1ccc(OCCCN2CCC(C(O)(c3ccccc3)c3ccccc3)CC2)cc1 | 7.47 |
| COc1ccc(NC(=S)N=Nc2c(O)[nH]c3ccccc23)cc1 | 15.8 |
| Cc1ccc(/C=C2\SC(=S)N(CCCC(=O)NNC(=O)c3ccccc3O)C2=O)cc1 | 16.9 |
| N#CC(=C1C=CC(=NO)C(Cl)=C1)c1ccccc1 | 2.66 |
| CCOc1cc(/C=N/Nc2cc(C)nc(-n3nc(C)cc3C)n2)ccc1O | 1.14 |
| CCCN1C/C(=C/c2ccc3c(c2)OCO3)C(=O)/C(=C/c2ccc3c(c2)OCO3)C1 | 12.5 |
